Where a name gives a salt, the structure may show the parent alone.
How the values were obtained:
CB1-receptor = CB1-receptor (UniProt P20272); test: In-vitro determination of affinity (binding) to the CB1-receptor, radioligand [3H]-CP55940; conditions: Pharmacological methods part I
Excerpt: 1. In-vitro determination of affinity to CB1CB2-Receptors
The in-vitro determination of the affinity of the inventive substituted pyrazoline compounds to CB1/CB2-Rezeptors is carded out as described in the publication of Ruth A. Ross, Heather C. Brockie et al., “Agonist-inverse agonist characterization at CB1 and CB2 cannabinoid receptors of L-759633, L759656 and AM630”, British Journal of Pharmacology, 126, 665-672, (1999), whereby the transfected human CB1 and CB2 receptors of Receptor Biology, Inc. are used. The radioligand used for both receptors is [^3H]-CP55940. The respective parts of the description is hereby incorporated by reference and forms part of the present disclosure. […]
Binding affinity to CB1 receptor was evaluated according to a modification of the method described by Govaerts et al., Eur J Pharmac Sci 23, 233-243 (2004). […]
Briefly, cerebellum from male wistar rats (250-300 g) were carefully dissected on ice and homogenates were prepared with Potter-Helveheim in a cold 50 mM Tris-HCl solution containing 5 mM MgCl2, 1 mM EDTA and 0.25 M sucrose, pH 7.4. […] Total protein concentration was determined using the Bio-Rad Lowry method based kit. […] Compounds were present at various concentrations and the non specific binding was determined in the presence of 10 μM HU-210. […]
Binding data were analyzed by non-linear regression with the software GraphPad Prism Version 3.03. […]

[1] = Effect of continued administration on body weight in rats; format: in vivo; conditions: 10 mg/kg i.p. once daily
Procedure: V. Determination of the Effect of Continued Administration of the Inventive Compounds on Body Weight in Rats
The weight of the animals was measured for 36 days, and the data grouped into 3 periods for analysis. Period 1, days 1-8 (period for adaptation of the animals to the environmental conditions: one week without treatment plus first day of treatment); Period 2, days 9-22 (treatment period: two weeks); Period 3, days 23-36 (escape treatment period: two weeks). The administration of the drugs started on day 8, immediately after the animal was weighted, and finished on day 21. The treatment period ranges between one day after first administration and one day after last administration. The drugs were administered i.p. once daily. For comparative purposes, absolute weights were transformed into relative percentages (each weight was divided by that of day 8 and multiplied by 100). […] All results are expressed as mean±S.E.M.
The dependence of body-weight (expressed as a percentage relative to day 8) on time (number of days after inclusion in the study) and treatment was assessed by a two-way (time, treatment) analysis of variance (ANOVA) with repeated measures on the time factor. […] The differences between pairs of curves (treatments) were analyzed using appropriate contrasts within the ANOVA test. […]

[2] = Chronic administration in animals made obese by a simplified cafeteria diet; format: in vivo, rats
[3] = molecular target: T1, recombinant human cannabinoid 1 receptor (CB1) (Homo sapiens, UniProt P21554); test: [35S]GTPγS binding assay, antagonism to CB1-receptor in CHO cell membranes; format: biochemical; conditions: compound 1 μM versus agonist WIN 55,212-2; 100% = difference between maximal WIN 55,212-2 effect alone and with Rimonabant (1 μM)
T1 construct: expressed in transfected cells; membrane preparation
T1 sequence (P21554 whole entry): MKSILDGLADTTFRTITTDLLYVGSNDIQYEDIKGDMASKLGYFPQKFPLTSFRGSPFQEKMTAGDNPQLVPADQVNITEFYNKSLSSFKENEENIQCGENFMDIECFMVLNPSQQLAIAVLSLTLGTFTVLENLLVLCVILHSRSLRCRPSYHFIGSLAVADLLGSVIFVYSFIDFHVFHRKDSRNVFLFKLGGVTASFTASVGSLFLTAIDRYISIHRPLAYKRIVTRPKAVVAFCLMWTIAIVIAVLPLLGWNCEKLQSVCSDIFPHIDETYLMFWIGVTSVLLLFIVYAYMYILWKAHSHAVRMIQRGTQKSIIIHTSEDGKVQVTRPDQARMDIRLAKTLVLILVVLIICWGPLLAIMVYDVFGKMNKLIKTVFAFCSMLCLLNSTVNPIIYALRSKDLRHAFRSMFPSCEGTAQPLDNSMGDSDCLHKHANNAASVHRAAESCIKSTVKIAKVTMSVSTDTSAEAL
Procedure: VI. In Vitro Determination of Antagonism to CB1-Receptor
Chinese hamster ovary (CHO) cells stably expressing recombinant human cannabinoid 1 receptor (CB1) were cultured in nutrient mixture Ham's F 12 supplemented with 10% heat-inactivated fetal bovine serum, 2 mM L-glutamine, 50 U/ml penicillin, 50 U/ml streptomycin and 0.5 mg/ml geneticin. In order to obtain cells, culture flasks were washed twice with phosphate buffered saline and scraped. Then, cells were collected by centrifugation (200×g, 10 min) and stored dry at −80° C. Cells were homogenized in ice-cold 20 mM HEPES, 10 mM EDTA (pH 7.5) and centrifuged at 40,000×g for 15 min at 4° C. The membrane pellet was resuspended in 20 mM HEPES, 0.1 mM EDTA (pH 7.5) and centrifuged for 15 min at 4° C. The final membrane pellet was resuspended in 20 mM HEPES, 0.1 mM EDTA (pH 7.5), and divided in aliquots and stored at −80° C. until use.
The reaction was performed in 96-well plates. […] Radioactivity was determined using a Wallac Microbeta Trilux. […]
The antagonism of the pyrazoline compounds of general formula I to the CB1-receptor was determined according to the method described in Pharmacological methods, part VI (table 2).

SMILES | IC50 (CB1-receptor) | effect on body weight ([1]; days 8-21, FIG. 1) | recovery of weight after treatment ([1]; escape period days 23-36, FIG. 1) | body weight on chronic administration ([2]; animals made obese by cafeteria diet (high-fat diet, chocolate, ground peanuts)) | body weight after 28 days of drug treatment versus vehicle-treated controls ([2]; obese rats, 28 days of treatment) | Antagonism [%] [3]
O=C(NN1CCCCC1)C1=NN(c2ccc(Cl)cc2Cl)[C@@H](c2ccc(Cl)cc2)C1 [A, (R)-N-piperidinyl-5-(4chlorophenyl)-1-(2,4-dichlorophenyl)-4,5-dihydro-1H-pyrazole-3-carboxamide] | 16.1 nM | stronger action than the racemate | slower recovery of weight | significantly decreased body weight | lower than those of the vehicle-treated controls | 106%
O=C(NN1CCCCC1)C1=NN(c2ccc(Cl)cc2Cl)[C@@H](c2ccc(Cl)cc2)C1 [A-Hydrochloride] | 20 nM | – | – | – | – | 113%

Source: patent publication US20070015810A1, “5(R)-Substituted Pyrazoline Compounds, their Preparation and Use as Medicaments” (LABORATORIOS DEL DR. ESTEVE, S.A., priority 2005, published 2007)
